Laboratory results reported in patent US7087722B1, “Fibrin binding domain polypeptides and uses and methods of producing same” (Savient Pharmaceuticals, Inc., priority 1988, dated 2006).

What was measured:
[1] = test system: clotting of citrated healthy human plasma by thrombin; assay: Plasma Thrombin Time (TT), clotting of citrated healthy human plasma; format: biochemical; settings: 1 mM spermidine; for "TT" Values (%): no addition: 100
Description: The effect of the r31 kD polypeptide on clotting of whole blood was measured using the clinical laboratory parameter defined as Thrombin-Time. In this reaction aliquots of 100 μl citrated healthy human plasma were mixed with 100 μl PBS and either the transglutaminase inhibitor spermidine, or with reduced-carboxyamidated p31 kD or reoxidized-refolded r31 kD. 200 μl thrombin solution was added to each aliquot while continuously mixing. The time from the addition of the thrombin to the formation of clot was measured, and is expressed as “TT” in seconds (Table B).

[2] = target: T1, guinea-pig liver transglutaminase (Sigma) (UniProt P08587); assay: Binding of 125I-r31 kD FBD to extracellular matrix (ECM) of endothelial cells in the presence of exogenous transglutaminase; format: biochemical; settings: 0.3 μM 125I-r31 kD FBD; 3 mM CaCl2; 0.02 units/ml transglutaminase; 45 minutes
T1 construct: purchased Sigma; host or cells: guinea-pig liver
T1 sequence (P08587 2-690): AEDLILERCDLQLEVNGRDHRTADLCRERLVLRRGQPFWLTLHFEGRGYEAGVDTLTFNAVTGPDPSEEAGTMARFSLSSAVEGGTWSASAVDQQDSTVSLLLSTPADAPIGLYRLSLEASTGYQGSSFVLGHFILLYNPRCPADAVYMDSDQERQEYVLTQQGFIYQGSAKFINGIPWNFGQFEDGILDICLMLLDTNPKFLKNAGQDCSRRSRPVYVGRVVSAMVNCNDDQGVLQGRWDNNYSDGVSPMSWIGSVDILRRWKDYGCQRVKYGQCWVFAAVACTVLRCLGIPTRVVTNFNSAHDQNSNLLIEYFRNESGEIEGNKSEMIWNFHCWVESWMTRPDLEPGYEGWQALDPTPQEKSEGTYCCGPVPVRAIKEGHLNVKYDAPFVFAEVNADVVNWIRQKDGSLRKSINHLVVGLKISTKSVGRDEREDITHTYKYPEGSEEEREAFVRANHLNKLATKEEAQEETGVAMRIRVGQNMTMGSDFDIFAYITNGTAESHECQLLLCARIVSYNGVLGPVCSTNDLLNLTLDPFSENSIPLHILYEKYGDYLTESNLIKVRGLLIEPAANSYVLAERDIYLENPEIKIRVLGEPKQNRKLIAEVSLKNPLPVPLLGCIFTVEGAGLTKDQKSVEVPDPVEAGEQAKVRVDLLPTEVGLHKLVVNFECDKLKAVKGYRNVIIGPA
Description: FIG. 51. Binding of ^125I-r31 kD FBD to ECM in the presence of various constituents
0.3 μM of ^125I-r31 kD FBD was incubated with extracellular matrix of endothelial cells (ECM) as described by Eld r et al. (20) in a 37° C. CO2-incubator in the presence of saline, 3 mM CaCl2 and 0.02 units/ml of guinea-pig liver transglutaminase (TG) and other constituents as indicated in the figure. The control was done in the absence of transglutaminase.
The reactions were terminated after 45 minutes by washing five times with PBS. Plates were extracted with a solution of 0.5% SDS and aliquots of the extracted material were measured in a gamma counter.
The binding was now further characterized by examination of the binding of 0.3 μM ^125I-r31 kD FBD to ECM in the presence and absence of exogenous transglutaminase; additionally the binding in the presence of transglutaminase was examined in the presence of each of heparin, fibronectin or spermidine.

Structure (SMILES): NCCCCNCCCN [spermidine]
- "TT" Values (\) ([1]; thrombin conc. 1.25 (μ/ml)): 105
- "TT" Values ([1]; thrombin conc. 1.25 (μ/ml), no addition: 55.4): 114 s
- "TT" Values (%) ([1]; thrombin conc. 1.25 (μ/ml)): 205%
- "TT" Values (\) ([1]; thrombin conc. 2.5 (μ/ml)): 72
- "TT" Values ([1]; thrombin conc. 2.5 (μ/ml), no addition: 25.5): 44 s
- "TT" Values (%) ([1]; thrombin conc. 2.5 (μ/ml)): 172%
- effect on binding of r31 kD FBD to ECM in the presence of transglutaminase [2]: inhibits the binding
